# Measured values published in PMC3445454, “Broad and Cross-Clade CD4^+ T-Cell Responses Elicited by a DNA Vaccine Encoding Highly Conserved and Promiscuous HIV-1 M-Group Consensus Peptides” (PLoS ONE, 2012).
# Residue numbers refer to the chain shown, from its start. pIC50: −log10 of the molar value.
# Experiments:
# [1] = tested on: splenocytes from HIVBr27 immunized mice; assay: murine IFN-γ ELISPOT assay; type: in vivo; settings: splenocytes of HIVBr27-immunized BALB/c mice, 5 µM peptide
# Protocol: Six to eight week-old female BALB/c mice were used in this study. Six mice per group were injected intramuscularly, at weeks 0, 2 and 4, with HIVBr27 plasmid or empty pVAX1. Each quadriceps was injected with 50 µL of DNA at a concentration of 1 µg/µL in saline such that each animal received a total of 100 µg of plasmid DNA per immunization. Two weeks after the last DNA immunization, mice were euthanized with CO2.
# Two weeks after the last immunization, mice were euthanized and spleens were removed aseptically. After obtaining single cell suspensions, cells were washed in 10 mL of RPMI 1640. Cells were then resuspended in R-10 (RPMI supplemented with 10% of fetal bovine serum (GIBCO), 2 mM L-glutamine (Life Technologies), 1 mM sodium pyruvate (Life Technologies), 1% vol/vol non-essential amino acids solution (Life Technologies), 1% vol/vol vitamin solution (Life Technologies), […] of Gentamicin, […] of Peflacin and 5×10^−5 M 2β-mercaptoetanol (Life Technologies). The viability of cells was evaluated using 0.2% Trypan Blue exclusion dye to discriminate between live and dead cells. Cell concentration was estimated with the aid of a Neubauer chamber and adjusted in cell culture medium. […]
# [2] = target: HLA-DR DRB3*01:01 (Homo sapiens, UniProt P01903+P79483); assay: biochemical; type: binding
# [3] = target: HLA-DR DRB5*01:01 (Homo sapiens, UniProt P01903+Q30154); assay: biochemical; type: binding
# [4] = target: T1, HLA-DP DPA1*01:03/DPB1*03:01 (Homo sapiens, UniProt P04440+P20036, A65V/A84D/A85E/E86D/F38Y/G113D/G114E/G40L/I94L/L37V/M105V/M116V/P115A/R125K/T199I); assay: biochemical; type: binding; settings: read-out: Binding capacity/IC50 (nM) DPA1*01:03 DPB1*03:01
# T1 sequence (P20036 29-260): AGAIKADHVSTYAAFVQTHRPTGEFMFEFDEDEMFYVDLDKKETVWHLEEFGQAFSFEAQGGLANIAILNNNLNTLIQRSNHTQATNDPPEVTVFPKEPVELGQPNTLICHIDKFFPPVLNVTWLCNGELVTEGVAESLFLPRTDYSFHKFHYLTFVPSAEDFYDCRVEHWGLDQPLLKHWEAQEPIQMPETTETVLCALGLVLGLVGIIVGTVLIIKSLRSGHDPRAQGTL
# T1 sequence (P04440 30-258 L37V/F38Y/G40L/A65V/A84D/A85E/E86D/I94L/M105V/G113D/G114E/P115A/M116V/R125K/T199I): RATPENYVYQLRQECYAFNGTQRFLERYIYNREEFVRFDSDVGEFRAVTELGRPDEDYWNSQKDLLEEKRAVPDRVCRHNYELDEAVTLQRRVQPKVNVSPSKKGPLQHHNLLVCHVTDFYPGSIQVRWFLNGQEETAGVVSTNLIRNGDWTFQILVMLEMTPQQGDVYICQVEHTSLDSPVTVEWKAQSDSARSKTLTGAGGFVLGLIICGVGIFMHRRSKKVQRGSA
# [5] = target: T2, HLA-DP DPA1*01:03/DPB1*20:01 (Homo sapiens, UniProt P04440+P20036, A65V/A84D/A85E/E86D/F38Y/G113D/G114E/G40L/I94L/L37V/M116V/P115A/R125K/T199I); assay: biochemical; type: binding; settings: read-out: Binding capacity/IC50 (nM) DPA1*01:03 DPB1*20:01
# T2 sequence (P20036 29-260): T1 sequence (P20036 29-260)
# T2 sequence (P04440 30-258 L37V/F38Y/G40L/A65V/A84D/A85E/E86D/I94L/G113D/G114E/P115A/M116V/R125K/T199I/V234M): T1 sequence (P04440 30-258 L37V/F38Y/G40L/A65V/A84D/A85E/E86D/I94L/M105V/G113D/G114E/P115A/M116V/R125K/T199I) with V76M, V205M
# [6] = target: T3, HLA-DP DPA1*02:01/DPB1*05:01 (Homo sapiens, UniProt P04440+P20036, A65V/A84E/F191V/F64L/G113D/G114E/K142R/L158P/M116V/M62Q/P115A/Q81R/R125K/T114A/T199I/T259P/V234M); assay: biochemical; type: binding; settings: read-out: Binding capacity/IC50 (nM) DPA1*02:01 DPB1*05:01
# T3 sequence (P20036 29-260 A42M/M62Q/Q81R/T114A/K142R/L158P/F191V/T259P): T1 sequence (P20036 29-260) with A14M, M34Q, Q53R, T86A, K114R, L130P, F163V, T231P
# T3 sequence (P04440 30-258 F64L/A65V/A84E/G113D/G114E/P115A/M116V/R125K/T199I/V234M): T1 sequence (P04440 30-258 L37V/F38Y/G40L/A65V/A84D/A85E/E86D/I94L/M105V/G113D/G114E/P115A/M116V/R125K/T199I) with V8L, Y9F, L11G, F35L, D55E, E56A, D57E, L65I, V76M, V205M
# [7] = target: HLA-DP DPA1*03:01/DPB1*04:02 (Homo sapiens, UniProt P04440+P20036, A42M/A65V/A84D/A85E/L207M/L97S); assay: biochemical
# [8] = target: HLA-DP DPA1*02:01/DPB1*01:01 (Homo sapiens, UniProt P04440+P20036, F191V/F38Y/F64Y/G113D/G114E/K142R/L158P/L37V/M105V/M116V/M62Q/P115A/Q81R/R125K/R223Q/T114A/T199I/T259P); assay: biochemical
# [9] = target: T4, HLA-DP DPA1*01:03/DPB1*04:01 (Homo sapiens, UniProt P04440+P20036); assay: biochemical; type: binding
# T4 sequence (P20036 29-260): T1 sequence (P20036 29-260)
# T4 sequence (P04440 30-258): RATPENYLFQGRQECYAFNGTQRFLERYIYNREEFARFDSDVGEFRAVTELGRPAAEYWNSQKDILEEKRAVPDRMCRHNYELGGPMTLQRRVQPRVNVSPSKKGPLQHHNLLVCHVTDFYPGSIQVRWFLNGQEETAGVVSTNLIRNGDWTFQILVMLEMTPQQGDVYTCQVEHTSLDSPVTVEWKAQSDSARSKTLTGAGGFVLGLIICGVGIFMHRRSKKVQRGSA
# [10] = target: T5, HLA-DP DPA1*02:01/DPB1*14:01 (Homo sapiens, UniProt P04440+P20036, A65V/A84D/A85E/E86D/F191V/F38H/G113D/G114E/G40L/I94L/K142R/L158P/L37V/M105V/M116V/M62Q/P115A/Q81R/R125K/T114A/T199I/T259P); assay: biochemical; type: binding; settings: read-out: Binding capacity/IC50 (nM) DPA1*02:01 DPB1*14:01
# T5 sequence (P20036 29-260 A42M/M62Q/Q81R/T114A/K142R/L158P/F191V/T259P): T1 sequence (P20036 29-260) with A14M, M34Q, Q53R, T86A, K114R, L130P, F163V, T231P
# T5 sequence (P04440 30-258 L37V/F38H/G40L/A65V/A84D/A85E/E86D/I94L/M105V/G113D/G114E/P115A/M116V/R125K/T199I/R223Q): T1 sequence (P04440 30-258 L37V/F38Y/G40L/A65V/A84D/A85E/E86D/I94L/M105V/G113D/G114E/P115A/M116V/R125K/T199I) with Y9H, R194Q
# [11] = target: T6, HLA-DP DPA1*01:03/DPB1*02:01 (Homo sapiens, UniProt P04440+P20036, A65V/A84D/A85E/K98E); assay: biochemical; type: binding
# T6 sequence (P20036 29-260): T1 sequence (P20036 29-260)
# T6 sequence (P04440 30-258 A65V/A84D/A85E/K98E): T4 sequence (P04440 30-258) with A36V, A55D, A56E, K69E
# Chain of HLA-DP DPA1*02:01/DPB1*01:01 (P20036 29-260 A42M/M62Q/Q81R/T114A/K142R/L158P/F191V/T259P, other chains not shown): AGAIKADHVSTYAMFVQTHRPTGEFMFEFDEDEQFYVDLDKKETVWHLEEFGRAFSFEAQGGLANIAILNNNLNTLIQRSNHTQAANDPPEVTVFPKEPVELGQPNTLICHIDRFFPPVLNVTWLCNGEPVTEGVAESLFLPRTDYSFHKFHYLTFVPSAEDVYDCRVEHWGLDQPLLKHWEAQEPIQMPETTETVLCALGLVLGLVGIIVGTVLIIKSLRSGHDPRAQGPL
molecule,measurement,setting,value
EWEFVSTPPLVKLWY [RT(413-427) B subtype],IFN-γ secretion against variant compared to M-group consensus peptide,[1],reduced
CSCC[C@H](NC(=O)[C@@H]1CCCN1C(=O)[C@H](CCCNC(=N)N)NC(=O)[C@H](CC(C)C)NC(=O)[C@@H]1CCCN1C(=O)[C@@H](NC(=O)[C@H](CCC(N)=O)NC(=O)[C@@H]1CCCN1C(=O)[C@H](CCCNC(=N)N)NC(=O)[C@@H](NC(=O)[C@@H]1CCCN1C(=O)[C@H](Cc1ccccc1)NC(=O)CN)C(C)C)C(C)C)C(=O)N[C@H](C(=O)N[C@@H](Cc1ccc(O)cc1)C(=O)N[C@@H](CCCCN)C(=O)NCC(=O)N[C@@H](C)C(=O)N[C@@H](Cc1ccccc1)C(=O)N[C@@H](CC(=O)O)C(=O)N[C@@H](CC(C)C)C(N)=O)[C@@H](C)O [nef(67-87)],pIC50,[2],5.20
same,pIC50,[3],6.72
EWEYVNTPPLVKLWY [RT(413-427) D subtype],IFN-γ secretion against variant compared to M-group consensus peptide,[1],reduced
CC[C@H](C)[C@H](NC(=O)[C@H](CCSC)NC(=O)[C@@H](NC(=O)[C@H](CCC(N)=O)NC(=O)[C@H](Cc1c[nH]c2ccccc12)NC(=O)[C@H](CCCNC(=N)N)NC(=O)[C@H](CC(N)=O)NC(=O)[C@H](CCC(=O)O)NC(=O)[C@@H](N)CCSC)C(C)C)C(=O)N[C@H](C(=O)N[C@@H](Cc1c[nH]c2ccccc12)C(=O)N[C@@H](CCC(N)=O)C(=O)N[C@H](C(=O)N[C@@H](CC(=O)O)C(=O)N[C@@H](CCCNC(=N)N)C(N)=O)C(C)C)C(C)C [vif(1-15)],IC50,[4],5840 nM
same,IC50,[5],364 nM
same,IC50,[6],8170 nM
same,pIC50,[7],5.43
same,pIC50,[8],5.99
same,pIC50,[9],7.89
same,IC50,[10],7240 nM
same,pIC50,[11],5.81
